How the values were obtained:
HCT-116 cells [1] = test: Annexin V-FITC/PI apoptosis flow cytometry, HCT-116; type: cell-based, human; conditions: IC50 dose, 24 h
From the text: (§1) Apoptosis is a natural biological process involving programmed cell death and plays an important role in maintaining correct homeostasis between cell proliferation and cell death. This is in contrast to necrosis, which is accompanied by acute inflammation, preceded by cell degradation due to the loss of the integrity of the cell membrane. It is possible to distinguish viable cells from apoptotic and necrotic cell fractions using Annexin V-FITC and Propidium Iodide (PI). Annexin V-FITC labels phosphatidylserine residues that, after the start of apoptosis, are located on the outer surface of the cell membrane, enabling the identification of cells in the early stages of apoptosis. PI binds stoichiometrically to intracellular DNA during late apoptosis and necrosis when the cell membrane has been damaged. This combination allows for the differentiation of early apoptotic (A+/P−), late apoptotic (A+/P+), necrosis (A−/P+), and normal (A−/P−) cells that can be quantified by flow cytometry.
(§2) The cell cycle and the type of cell death induced by the test compounds were measured by using flow cytometry according to the manufacturer’s protocol. […] Control cells were grown with fresh medium supplemented with 0.5% DMSO. After 24 h of incubation, the cells were collected by trypsinization. Then, samples were centrifuged (3 min, 2000 rpm, RT) and washed with PBS, after which the cells were centrifuged again (3 min, 2000 rpm, RT) and the supernatant was carefully removed. The resulting precipitate contained cells, which were used for flow cytometry experiments.
(§3) The fraction of dead cells after treatment with the test compounds were detected using the FITC Annexin-V Apoptosis Detection Kit with PI (BioLegend, San Diego, CA, USA). […] 250 μL of the Annexin-V Binding Buffer was then added and the samples were incubated in the dark on ice for 15 min.

MCF-7 cells [2] = test: MTT cytotoxicity assay, MCF-7; type: cell-based, human; conditions: for IC50: Homo sapiens, MCF7, incubation time 72 h; for Selectivity Index (SI) MCF-7: IC50 NHDF-Neo / IC50 MCF-7, 72 h incubation; for inhibition of cell growth at the highest doses, MCF-7: 72 h
Description: (§4) An in vitro biological test package was performed for the obtained derivatives. […] The MTT test is a colorimetric method for detecting proliferating cells. It is based on the ability of the enzyme mitochondrial dehydrogenase to convert yellow tetrazole salt (MTT) into purple formazan. The amount of the product formed in the reaction, determined spectrophotometrically, is proportional to the number of living cells.
(§5) The in vitro cytotoxicity of the test compounds was determined by the MTT (3-[4,5–dimethylthiazol-2-yl]-2,5-diphenyltetrazolium bromide) test (Sigma-Aldrich, Taufkirchen, Germany) according to the manufacturer’s protocol. At the beginning, for each cell line were determined the optimal seeding densities to ensure exponential growth throughout the experimental period. The confluent layer of cells were trypsinized, collected, and suspended in a growth medium. […] Then, the culture medium was replaced with solutions of different concentrations of test compounds in a fresh medium. Stock solutions of test compounds were prepared in DMSO and diluted to final concentrations with appropriate volumes of the growth medium directly before the experiment. Cells suspended in a medium supplemented with 0.5% DMSO (the amount of DMSO necessary to dissolve the highest dose of the respective sample) were used as a control of the experiment. […] The compound-treated cells were incubated for a further 24–72 h. […] After this time, the MTT dye was carefully removed, and the acquired formazan crystals were dissolved by DMSO (Chempur, Piekary Śląskie, Poland). The proliferation was evaluated by measuring the formazan product’s absorbance at a wavelength of 570 nm with a microplate spectrophotometer (Epoch, BioTek, Winooski, VT, USA). All experiments were conducted in triplicate with four technical repeats for each tested concentration. Results were expressed as the percentage change in the viability of the test cells relative to the untreated control cells and calculated as the inhibitory concentration (IC50). […] The results are expressed as the average value ± standard deviation (SD).

MCF-7 cells [3] = test: Annexin V-FITC/PI apoptosis flow cytometry, MCF-7; type: cell-based, human; conditions: IC50 dose, 24 h
From the text: as §1, §2, §3

NHDF-Neo cells = test: MTT cytotoxicity assay, NHDF-Neo; type: cell-based; conditions: Homo sapiens, incubation time 72 h
Description: An in vitro biological test package was performed for the obtained derivatives. All newly synthesized compounds were assessed for their cytotoxic activity against human cell lines with increased GLUT expression: the colon cancer cell line (HCT-116) and the breast cancer cell line (MCF-7), as well as on normal human dermal fibroblasts cells (NHDF-Neo), using the MTT assay (3-(4,5-dimethylthiazol-2-yl)-2,5-diphenyltetrazolium bromide). The MTT test is a colorimetric method for detecting proliferating cells. It is based on the ability of the enzyme mitochondrial dehydrogenase to convert yellow tetrazole salt (MTT) into purple formazan. The amount of the product formed in the reaction, determined spectrophotometrically, is proportional to the number of living cells. The antiproliferative activity was expressed as the concentration that caused 50% inhibition of the growth of the population of cells treated with the test compounds relative to the control cells (inhibitory concentration activity—IC50). Table 1 and Table 2 summarize the IC50 values calculated for all tested compounds.
The in vitro cytotoxicity of the test compounds was determined by the MTT (3-[4,5–dimethylthiazol-2-yl]-2,5-diphenyltetrazolium bromide) test (Sigma-Aldrich, Taufkirchen, Germany) according to the manufacturer’s protocol. At the beginning, for each cell line were determined the optimal seeding densities to ensure exponential growth throughout the experimental period. The confluent layer of cells were trypsinized, collected, and suspended in a growth medium. The cell suspension were then seeded into 96-well plates at a density of 1 × 10^4 or 2 × 10^3 (HCT-116) or 5 × 10^3 (MCF-7, NHDF-Neo) per well and incubated for 24 h under standard conditions (5% CO2, 37 °C). Then, the culture medium was replaced with solutions of different concentrations of test compounds in a fresh medium. Stock solutions of test compounds were prepared in DMSO and diluted to final concentrations with appropriate volumes of the growth medium directly before the experiment. Cells suspended in a medium supplemented with 0.5% DMSO (the amount of DMSO necessary to dissolve the highest dose of the respective sample) were used as a control of the experiment. […] The compound-treated cells were incubated for a further 24–72 h. After that, the medium was removed and the MTT solution (50 µL, 0.5 mg/mL in PBS) was added into each well and incubated for another 3 h under standard conditions (5% CO2, 37 °C). After this time, the MTT dye was carefully removed, and the acquired formazan crystals were dissolved by DMSO (Chempur, Piekary Śląskie, Poland). The proliferation was evaluated by measuring the formazan product’s absorbance at a wavelength of 570 nm with a microplate spectrophotometer (Epoch, BioTek, Winooski, VT, USA). All experiments were conducted in triplicate with four technical repeats for each tested concentration. Results were expressed as the percentage change in the viability of the test cells relative to the untreated control cells and calculated as the inhibitory concentration (IC50). The IC50 values were defined as the drug concentration that was necessary to reduce cell proliferation to 50% of the untreated control and this parameter was calculated using CalcuSyn software (version 2.0, Biosoft, Cambridge, UK). The results are expressed as the average value ± standard deviation (SD).

HCT-116 cells [4] = test: MTT cytotoxicity assay, HCT-116; type: cell-based, human; conditions: for IC50: Homo sapiens, HCT-116; for Selectivity Index (SI) HCT-116: IC50 NHDF-Neo / IC50 HCT-116, 72 h incubation; for inhibition of cell growth at the highest doses, HCT-116: 72 h
Description: as §4, §5

| SMILES | apoptotic cells, HCT-116 (HCT-116 cells [1]) | IC50 (MCF-7 cells [2]; MTT) | Selectivity Index (SI) MCF-7 (MCF-7 cells [2]) | inhibition of cell growth at the highest doses, MCF-7 (MCF-7 cells [2]; MTT) | apoptotic cells, MCF-7 (MCF-7 cells [3]) | IC50 (NHDF-Neo cells) | IC50 (HCT-116 cells [4]; MTT, incubation time 24 h) | IC50 (HCT-116 cells [4]; MTT, incubation time 72 h) | Selectivity Index (SI) HCT-116 (HCT-116 cells [4]) | inhibition of cell growth at the highest doses, HCT-116 (HCT-116 cells [4]; MTT) | apoptosis induction in words, HCT-116 (HCT-116 cells [1]) | apoptosis induction in words, MCF-7 (MCF-7 cells [3]) | growth inhibitory activity in words, MCF-7 (MCF-7 cells [2]; MTT) | growth inhibitory activity in words, HCT-116 (HCT-116 cells [4]; MTT) |
| --- | --- | --- | --- | --- | --- | --- | --- | --- | --- | --- | --- | --- | --- | --- |
| CC(=O)OC1O[C@H](Cn2cc(COc3cccc4cccnc34)nn2)[C@@H](OC(C)=O)[C@H](OC(C)=O)[C@H]1OC(C)=O (stereo partly drawn) [Compound A-1] | 29% | 52.8 ± 0.75 µM | 2.46 | 100% | 35% | 130 ± 1.49 µM | 83.5 ± 1.91 µM | 12 ± 0.9 µM | 10.83 | 100% |  |  |  |  |
| OC1O[C@H](Cn2cc(COc3cccc4cccnc34)nn2)[C@@H](O)[C@H](O)[C@H]1O (stereo partly drawn) [Compound A-2] | 46% | 54.9 ± 8.71 µM | 5.78 | 100% | 39% | 317 ± 9.46 µM | 191 ± 2.46 µM | 22.3 ± 0.7 µM | 14.21 | 100% |  |  |  |  |
| O[C@@H]1[C@@H](O)[C@@H](O[C@H]2O[C@H](Cn3cc(COc4cccc5cccnc45)nn3)[C@@H](O)[C@H](O)[C@H]2O)O[C@H](Cn2cc(COc3cccc4cccnc34)nn2)[C@H]1O [Compound D-2] | 87% | 34 ± 0.95 µM | 2.08 |  | 70% | 70.7 ± 0.75 µM | 53.4 ± 5.14 µM | 21.3 ± 0.94 µM | 3.32 |  |  |  |  |  |
| CC(=O)OC[C@H]1O[C@@H](n2cc(COc3cccc4cccnc34)nn2)[C@H](OC(C)=O)[C@@H](OC(C)=O)[C@@H]1OC(C)=O [Compound E-1, reference compound] |  | 57.7 ± 3.32 µM | 0.96 | 100% |  | 55.3 ± 5.08 µM |  | 45.7 ± 1.81 µM | 1.21 | 100% | did not induce apoptosis | did not induce apoptosis |  |  |
| OC[C@H]1O[C@@H](n2cc(COc3cccc4cccnc34)nn2)[C@H](O)[C@@H](O)[C@@H]1O [Compound E-2, reference compound] |  | 185 ± 2.21 µM | 1.26 |  |  | 233 ± 9.44 µM | 212 ± 7.71 µM | 162 ± 5.97 µM | 1.43 |  |  |  | practically did not affect the cell viability | practically did not affect the cell viability |
